Measurements as given in patent publication US11814412B2, “Artificial proteins and compositions and methods thereof” (The Trustees of the University of Pennsylvania, priority 2015, dated 2023).

Molecular target: 3M, mammalian maquette MR reporter (de novo heme-binding maquette protein)
Conditions: read-out: Kd (heme-binding affinity), current (preliminary) 3M before directed evolution

C=CC1=C(C)c2cc3[nH]c(cc4nc(cc5[nH]c(cc1n2)c(C)c5CCC(=O)O)C(CCC(=O)O)=C4C)c(C)c3C=C.[Fe] [heme]
Kd: ~1 µM
